This is an account of results in ChEMBL document CHEMBL4627407, “Identification of a Potent Oridonin Analogue for Treatment of Triple-Negative Breast Cancer” (J Med Chem, 2020).

pIC50: −log10 of the molar value.

The test system of series [1] is HCC1806. The experiment in a line: Antimigratory activity against human HCC1806 cells measured up to 48 hrs by phase contrast microscopic based scratch wound healing assay. The format is functional, cell-based.
Series [2] can be described thus: Toxicity in ICR mouse assessed as induction of morphological changes in kidney at 25 mg/kg, iv administered once per day for 23 consecutive days. The note with it: in vivo. The format is organism-based.
The test system of series [3] is HCC1806. The experiment in a line: Induction of apoptosis in human HCC1806 cells assessed as late apoptotic cells at 100 uM after 48 hrs by Annexin V-FITC/propidium iodide double staining based flow cytometry (reference value: 0.81%). It is filed as functional.
Series [4] in a line: Inhibition of PI3K/Akt/mTOR signalling pathway in human HCC1806 cells assessed as reduction in phosphorylated PI3K expression at Y458 residue after 48 hrs by Western blot analysis. It is filed as cell-based. In general terms: Immunoblotting shows a protein as a band on a membrane.
A further series deals with NCI/ADR-RES. Put plainly: Antiproliferative activity against human MCF7/ADR cells after 72 hrs by MTT assay. It is filed as functional, cell-based.
Series [5] has as its system HCC1806. The experiment in a line: Antitumor activity against human HCC1806 cells in ICR mouse assessed as reduction in tumor weight at 12.5 mg/kg, iv administered once per day for 23 consecutive days and measured every 2 days relative to control. The format is functional. On the set-up: scale not given: the % may be the effect or the level left.

As a reminder, the pIC50 is the IC50 on a negative log10 scale, so that one unit is a factor of ten.

On to `C=C1C(=O)[C@@]23C(=O)[C@@H]4OC[C@]5(C=CCC(C)(C)[C@@H]45)[C@@H]2CC[C@@H]1[C@H]3OC(=O)/C=C/c1ccncc1`, for which the Activity result was “Dose-dependent effect” with HCC1806 [1], “Non-Toxic” in series [2], 3.61% in the series with HCC1806 [3] and 67.3% in the series on HCC1806 [5]. Further, the inhibition result in series [4] was “Dose-dependent effect”. This compound also showed a pIC50 in the series on NCI/ADR-RES of 5.86.
